The values that follow are results of earlier work, collected in patent publication US20090312435A1, “SUBSTITUTED PHENETHYLAMINES WITH SEROTONINERGIC AND/OR NOREPINEPHRINERGIC ACTIVITY” (AUSPEX PHARMACEUTICALS, INC, priority 2006, published 2009).

Molecules are shown by their SMILES. “And” between values parts separate entries of the source, which are not always exact repeats. Identical values can stand only once. Like-named read-outs stand apart in the source and are kept apart here.

In the case of `COc1ccc(C(CN(C)C)C2(O)CCCCC2)cc1` (racemic) [venlafaxine], the “half-life (T1/2)” value (in humans) is ~5 h and 3 to 7 h.

Take `CN(C)CC(c1ccc(O)cc1)C1(O)CCCCC1` (centres unmarked) [O-desmethylvenlafaxine]: the “half-life (T1/2)” value (human, in vivo) was around 11 h.
